ChEMBL document CHEMBL3390836, “Mannich- and LedererManasse-based analogues of the natural product S-(+)-curcuphenol as cancer proliferation and migration inhibitors” (Medchemcomm, 2012)

What was measured:
Format in all cases: functional
HCC 2998 [1] = experiment: Cytotoxicity against human HCC2998 cells assessed as cell growth at 10^-4 M after 48 hrs by SRB assay relative to control; conditions: HCC 2998, 48 h, read-out: Activity
A498 [2] = experiment: Cytotoxicity against human A498 cells after 48 hrs by SRB assay; conditions: A498, 48 h; for CC50: read-out: LC50 (the source's name)
A549 = experiment: Cytotoxicity against human A549 cells assessed as cell growth at 10^-8 M after 48 hrs by SRB assay relative to control; conditions: A549, 48 h, read-out: Activity
NCI-H322M = experiment: Cytotoxicity against human NCI-H322M cells assessed as cell growth at 10^-8 M after 48 hrs by SRB assay relative to control; conditions: read-out: Activity
HCC 2998 [3] = experiment: Cytotoxicity against human HCC2998 cells assessed as cell growth at 10^-8 M after 48 hrs by SRB assay relative to control; conditions: HCC 2998, 48 h, read-out: Activity
[4] = Cytotoxicity against human HCT116 cells assessed as cell growth at 10^-8 M after 48 hrs by SRB assay relative to control; conditions: HCT-116, 48 h, read-out: Activity
IGROV-1 = experiment: Cytotoxicity against human IGROV1 cells assessed as cell growth at 10^-4 M after 48 hrs by SRB assay relative to control; conditions: IGROV-1, 48 h, read-out: Activity
[5] = Cytotoxicity against human OVCAR5 cells assessed as cell growth at 10^-4 M after 48 hrs by SRB assay relative to control; conditions: OVCAR-5, 48 h, read-out: Activity
A498 [6] = experiment: Cytotoxicity against human A498 cells assessed as cell growth at 10^-4 M after 48 hrs by SRB assay relative to control; conditions: A498, 48 h, read-out: Activity
[7] = Cytotoxicity against human UACC62 cells assessed as cell growth at 10^-8 M after 48 hrs by SRB assay relative to control; conditions: UACC-62, 48 h, read-out: Activity
[8] = Cytotoxicity against human OVCAR3 cells assessed as cell growth at 10^-8 M after 48 hrs by SRB assay relative to control; conditions: OVCAR-3, 48 h, read-out: Activity
TK-10 [9] = experiment: Cytotoxicity against human TK10 cells assessed as cell growth at 10^-8 M after 48 hrs by SRB assay relative to control; conditions: TK-10, 48 h, read-out: Activity
MOLT-4 [10] = experiment: Cytotoxicity against human MOLT4 cells assessed as cell growth at 10^-7 M after 48 hrs by SRB assay relative to control; conditions: MOLT-4, 48 h, read-out: Activity
HOP-62 = experiment: Cytotoxicity against human HOP62 cells assessed as cell growth at 10^-7 M after 48 hrs by SRB assay relative to control; conditions: HOP-62, 48 h, read-out: Activity
NCI-H226 [11] = experiment: Cytotoxicity against human NCI-H226 cells assessed as cell growth at 10^-7 M after 48 hrs by SRB assay relative to control; conditions: NCI-H226, 48 h, read-out: Activity
NCI-H23 = experiment: Cytotoxicity against human NCI-H23 cells assessed as cell growth at 10^-7 M after 48 hrs by SRB assay relative to control; conditions: NCI-H23, 48 h, read-out: Activity
[12] = Cytotoxicity against human HCT15 cells assessed as cell growth at 10^-7 M after 48 hrs by SRB assay relative to control; conditions: HCT-15, 48 h, read-out: Activity
LOX IMVI = experiment: Cytotoxicity against human LOXIMVI cells assessed as cell growth at 10^-7 M after 48 hrs by SRB assay relative to control; conditions: read-out: Activity
HL-60(TB) = experiment: Cytotoxicity against human HL-60(TB) cells after 48 hrs by SRB assay; conditions: HL-60, 48 h; for CC50: read-out: LC50 (the source's name)
MOLT-4 [13] = experiment: Cytotoxicity against human MOLT4 cells after 48 hrs by SRB assay; conditions: MOLT-4, 48 h
SNB-19 = experiment: Cytotoxicity against human SNB19 cells after 48 hrs by SRB assay; conditions: SNB-19, 48 h; for CC50: read-out: LC50 (the source's name)
SK-MEL-5 [14] = experiment: Cytotoxicity against human SK-MEL-5 cells assessed as cell growth at 10^-7 M after 48 hrs by SRB assay relative to control; conditions: SK-MEL-5, 48 h, read-out: Activity
[15] = Cytotoxicity against human UACC62 cells assessed as cell growth at 10^-7 M after 48 hrs by SRB assay relative to control; conditions: UACC-62, 48 h, read-out: Activity
[16] = Cytotoxicity against human OVCAR8 cells assessed as cell growth at 10^-7 M after 48 hrs by SRB assay relative to control; conditions: OVCAR-8, 48 h, read-out: Activity
TK-10 [17] = experiment: Cytotoxicity against human TK10 cells assessed as cell growth at 10^-7 M after 48 hrs by SRB assay relative to control; conditions: TK-10, 48 h, read-out: Activity
BT-549 = experiment: Cytotoxicity against human BT549 cells assessed as cell growth at 10^-7 M after 48 hrs by SRB assay relative to control; conditions: BT-549, 48 h, read-out: Activity
MOLT-4 [18] = experiment: Cytotoxicity against human MOLT4 cells assessed as cell growth at 10^-6 M after 48 hrs by SRB assay relative to control; conditions: MOLT-4, 48 h, read-out: Activity
NCI-H226 [19] = experiment: Cytotoxicity against human NCI-H226 cells assessed as cell growth at 10^-6 M after 48 hrs by SRB assay relative to control; conditions: NCI-H226, 48 h, read-out: Activity
NCI-H460 = experiment: Cytotoxicity against human NCI-H460 cells assessed as cell growth at 10^-6 M after 48 hrs by SRB assay relative to control; conditions: NCI-H460, 48 h, read-out: Activity
[20] = Cytotoxicity against human HCT15 cells assessed as cell growth at 10^-6 M after 48 hrs by SRB assay relative to control; conditions: HCT-15, 48 h, read-out: Activity
HT-29 = experiment: Cytotoxicity against human HT-29 cells assessed as cell growth at 10^-6 M after 48 hrs by SRB assay relative to control; conditions: HT-29, 48 h, read-out: Activity
MDA-MB-435 = experiment: Cytotoxicity against human MDA-MB-435 cells assessed as cell growth at 10^-6 M after 48 hrs by SRB assay relative to control; conditions: MDA-MB-435, 48 h, read-out: Activity
SK-MEL-5 [21] = experiment: Cytotoxicity against human SK-MEL-5 cells assessed as cell growth at 10^-6 M after 48 hrs by SRB assay relative to control; conditions: SK-MEL-5, 48 h, read-out: Activity
[22] = Cytotoxicity against human OVCAR3 cells assessed as cell growth at 10^-6 M after 48 hrs by SRB assay relative to control; conditions: OVCAR-3, 48 h, read-out: Activity
ACHN = experiment: Cytotoxicity against human ACHN cells assessed as cell growth at 10^-6 M after 48 hrs by SRB assay relative to control; conditions: read-out: Activity
TK-10 [23] = experiment: Cytotoxicity against human TK10 cells assessed as cell growth at 10^-6 M after 48 hrs by SRB assay relative to control; conditions: TK-10, 48 h, read-out: Activity
MDA-MB-231 = experiment: Cytotoxicity against human MDA-MB-231 cells assessed as cell growth at 10^-6 M after 48 hrs by SRB assay relative to control; conditions: MDA-MB-231, 48 h, read-out: Activity

Question: Which growth at 100 µM (HCC 2998 [1]) does the source give for `CC(C)=CCC[C@H](C)c1ccc(C)c(CNCC2CCNCC2)c1O` here?
Answer: -94%

Question: And the GI50 (A498 [2])?
Answer: 12.1 µM

Question: And the TGI (A498 [2])?
Answer: > 25 µM

Question: What about the CC50 (A498 [2]) of the same compound?
Answer: > 25 µM

Question: What about the growth at 0.01 µM (A549) of the same compound?
Answer: 101%

Question: And the growth at 0.01 µM (NCI-H322M)?
Answer: 99%

Question: What about the growth at 0.01 µM (HCC 2998 [3]) of the same compound?
Answer: 101%

Question: What about the growth at 0.01 µM [4] of the same compound?
Answer: 100%

Question: And the growth at 100 µM (IGROV-1)?
Answer: 24%

Question: And the growth at 100 µM [5]?
Answer: 27%

Question: What about the growth at 100 µM (A498 [6]) of the same compound?
Answer: 43%

Question: What about the growth at 0.01 µM [7] of the same compound?
Answer: 97%

Question: What about the growth at 0.01 µM [8] of the same compound?
Answer: 105%

Question: And the growth at 0.01 µM (TK-10 [9])?
Answer: 92%

Question: And the growth at 0.1 µM (MOLT-4 [10])?
Answer: 96%

Question: And the growth at 0.1 µM (HOP-62)?
Answer: 95%

Question: And the growth at 0.1 µM (NCI-H226 [11])?
Answer: 79%

Question: What about the growth at 0.1 µM (NCI-H23) of the same compound?
Answer: 94%

Question: What about the growth at 0.1 µM [12] of the same compound?
Answer: 100%

Question: And the growth at 0.1 µM (LOX IMVI)?
Answer: 95%

Question: What about the GI50 (HL-60(TB)) of the same compound?
Answer: 5.02 µM

Question: What about the TGI (HL-60(TB)) of the same compound?
Answer: 10.2 µM

Question: What about the CC50 (HL-60(TB)) of the same compound?
Answer: 20.7 µM

Question: And the LC50 (MOLT-4 [13])?
Answer: > 25 µM

Question: And the GI50 (SNB-19)?
Answer: 3.99 µM

Question: What about the TGI (SNB-19) of the same compound?
Answer: > 25 µM

Question: What about the CC50 (SNB-19) of the same compound?
Answer: > 25 µM

Question: And the growth at 0.1 µM (SK-MEL-5 [14])?
Answer: 90%

Question: What about the growth at 0.1 µM [15] of the same compound?
Answer: 90%

Question: What about the growth at 0.1 µM [16] of the same compound?
Answer: 104%

Question: What about the growth at 0.1 µM (TK-10 [17]) of the same compound?
Answer: 92%

Question: And the growth at 0.1 µM (BT-549)?
Answer: 89%

Question: And the growth at 1 µM (MOLT-4 [18])?
Answer: 99%

Question: And the growth at 1 µM (NCI-H226 [19])?
Answer: 86%

Question: What about the growth at 1 µM (NCI-H460) of the same compound?
Answer: 102%

Question: What about the growth at 1 µM [20] of the same compound?
Answer: 98%

Question: And the growth at 1 µM (HT-29)?
Answer: 113%

Question: What about the growth at 1 µM (MDA-MB-435) of the same compound?
Answer: 92%

Question: And the growth at 1 µM (SK-MEL-5 [21])?
Answer: 93%

Question: And the growth at 1 µM [22]?
Answer: 103%

Question: And the growth at 1 µM (ACHN)?
Answer: 92%

Question: What about the growth at 1 µM (TK-10 [23]) of the same compound?
Answer: 99%

Question: What about the growth at 1 µM (MDA-MB-231) of the same compound?
Answer: 104%

Question: What does the source list for `COc1ccc(CCN2COc3c([C@@H](C)CCC=C(C)C)ccc(C)c3C2)cc1OC`?
Answer: growth at 100 µM (HCC 2998 [1]): -100%; GI50 (A498 [2]): 1.96 µM; TGI (A498 [2]): 11.9 µM; CC50 (A498 [2]): 37.1 µM; growth at 0.01 µM (A549): 87%; growth at 0.01 µM (NCI-H322M): 87%; growth at 0.01 µM (HCC 2998 [3]): 77%; growth at 0.01 µM [4]: 98%; growth at 100 µM (IGROV-1): -99%; growth at 100 µM [5]: -100%; growth at 100 µM (A498 [6]): -93%; growth at 0.01 µM [7]: 95%; growth at 0.01 µM [8]: 95%; growth at 0.01 µM (TK-10 [9]): 88%; growth at 0.1 µM (MOLT-4 [10]): 89%; growth at 0.1 µM (HOP-62): 96%; growth at 0.1 µM (NCI-H226 [11]): 88%; growth at 0.1 µM (NCI-H23): 107%; growth at 0.1 µM [12]: 86%; growth at 0.1 µM (LOX IMVI): 84%; GI50 (HL-60(TB)): 4.11 µM; TGI (HL-60(TB)): 60.9 µM; CC50 (HL-60(TB)): > 100 µM; GI50 (MOLT-4 [13]): 3.69 µM; LC50 (MOLT-4 [13]): > 100 µM; TGI (MOLT-4 [13]): > 100 µM; GI50 (SNB-19): 12.1 µM; TGI (SNB-19): 42.8 µM; CC50 (SNB-19): > 100 µM; growth at 0.1 µM (SK-MEL-5 [14]): 91%; growth at 0.1 µM [15]: 90%; growth at 0.1 µM [16]: 95%; growth at 0.1 µM (TK-10 [17]): 79%; growth at 0.1 µM (BT-549): 91%; growth at 1 µM (MOLT-4 [18]): 85%; growth at 1 µM (NCI-H226 [19]): 94%; growth at 1 µM (NCI-H460): 99%; growth at 1 µM [20]: 90%; growth at 1 µM (HT-29): 91%; growth at 1 µM (MDA-MB-435): 96%; growth at 1 µM (SK-MEL-5 [21]): 90%; growth at 1 µM [22]: 91%; growth at 1 µM (ACHN): 85%; growth at 1 µM (TK-10 [23]): 89%; growth at 1 µM (MDA-MB-231): 91%
